Settings in all cases: Compound concentration 10 µM
Assay [1] deals with Beta-1 adrenergic receptor (Homo sapiens) (UniProt P08588).
Description: PDSP Primary Binding target: ADRB1 - Compounds are tested at 10 uM concentration, plate are incubated at room temperature in the dark for 90 minutes. Reaction are stopped by vacuum filtration onto 0.3% polyethyleneimine soaked filter mats using Filtermate harvester. Scintilation cocktail is then melted onto microwave-dried filters on a hot plate and the radio activity is counted in Microbia counter.
The target of assay [2] is Sodium-dependent serotonin transporter (Homo sapiens) (UniProt P31645).
Description: PDSP Primary Binding target: SLC6A4 - Compounds are tested at 10 uM concentration, plate are incubated at room temperature in the dark for 90 minutes. Reaction are stopped by vacuum filtration onto 0.3% polyethyleneimine soaked filter mats using Filtermate harvester. Scintilation cocktail is then melted onto microwave-dried filters on a hot plate and the radio activity is counted in Microbia counter.
For assay [3], the target named is T1, Alpha-1D adrenergic receptor (Homo sapiens) (UniProt P25100).
T1 sequence (whole entry): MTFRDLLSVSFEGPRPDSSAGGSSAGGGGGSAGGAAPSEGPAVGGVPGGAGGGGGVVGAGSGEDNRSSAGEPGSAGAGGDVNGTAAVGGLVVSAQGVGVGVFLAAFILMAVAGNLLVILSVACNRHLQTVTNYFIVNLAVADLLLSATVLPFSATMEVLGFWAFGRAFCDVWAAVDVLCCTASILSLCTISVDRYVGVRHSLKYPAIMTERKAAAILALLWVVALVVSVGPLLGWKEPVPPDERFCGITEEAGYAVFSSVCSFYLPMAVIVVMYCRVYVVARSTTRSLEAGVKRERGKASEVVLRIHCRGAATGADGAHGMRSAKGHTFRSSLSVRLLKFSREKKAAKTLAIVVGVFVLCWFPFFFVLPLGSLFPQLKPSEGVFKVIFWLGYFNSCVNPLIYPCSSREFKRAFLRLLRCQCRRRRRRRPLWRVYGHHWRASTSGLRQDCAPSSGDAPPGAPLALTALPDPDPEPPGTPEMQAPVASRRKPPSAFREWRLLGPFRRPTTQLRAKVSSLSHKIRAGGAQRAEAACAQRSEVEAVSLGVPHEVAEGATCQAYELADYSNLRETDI
Description: PDSP Primary Binding target: ADRA1D - Compounds are tested at 10 uM concentration, plate are incubated at room temperature in the dark for 90 minutes. Reaction are stopped by vacuum filtration onto 0.3% polyethyleneimine soaked filter mats using Filtermate harvester. Scintilation cocktail is then melted onto microwave-dried filters on a hot plate and the radio activity is counted in Microbia counter.

Assay [4] deals with T2, Alpha-1A adrenergic receptor (Homo sapiens) (UniProt P35348).
T2 sequence (whole entry): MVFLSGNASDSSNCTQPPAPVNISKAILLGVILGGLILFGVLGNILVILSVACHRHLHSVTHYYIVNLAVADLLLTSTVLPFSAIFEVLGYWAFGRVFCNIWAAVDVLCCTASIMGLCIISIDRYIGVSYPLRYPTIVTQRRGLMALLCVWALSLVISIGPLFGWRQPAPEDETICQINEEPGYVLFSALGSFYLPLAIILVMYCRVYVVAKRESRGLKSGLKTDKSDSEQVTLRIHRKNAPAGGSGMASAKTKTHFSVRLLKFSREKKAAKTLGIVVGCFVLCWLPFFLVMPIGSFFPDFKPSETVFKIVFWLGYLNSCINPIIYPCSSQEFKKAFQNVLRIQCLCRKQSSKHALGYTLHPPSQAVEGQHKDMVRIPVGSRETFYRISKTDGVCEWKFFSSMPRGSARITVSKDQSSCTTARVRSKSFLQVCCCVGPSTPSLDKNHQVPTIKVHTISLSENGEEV
Description: PDSP Primary Binding target: ADRA1A - Compounds are tested at 10 uM concentration, plate are incubated at room temperature in the dark for 90 minutes. Reaction are stopped by vacuum filtration onto 0.3% polyethyleneimine soaked filter mats using Filtermate harvester. Scintilation cocktail is then melted onto microwave-dried filters on a hot plate and the radio activity is counted in Microbia counter.

In assay [5] the target is 5-hydroxytryptamine receptor 2A (Homo sapiens) (UniProt P28223).
Chain of 5-hydroxytryptamine receptor 2A (Homo sapiens) (P28223 whole entry): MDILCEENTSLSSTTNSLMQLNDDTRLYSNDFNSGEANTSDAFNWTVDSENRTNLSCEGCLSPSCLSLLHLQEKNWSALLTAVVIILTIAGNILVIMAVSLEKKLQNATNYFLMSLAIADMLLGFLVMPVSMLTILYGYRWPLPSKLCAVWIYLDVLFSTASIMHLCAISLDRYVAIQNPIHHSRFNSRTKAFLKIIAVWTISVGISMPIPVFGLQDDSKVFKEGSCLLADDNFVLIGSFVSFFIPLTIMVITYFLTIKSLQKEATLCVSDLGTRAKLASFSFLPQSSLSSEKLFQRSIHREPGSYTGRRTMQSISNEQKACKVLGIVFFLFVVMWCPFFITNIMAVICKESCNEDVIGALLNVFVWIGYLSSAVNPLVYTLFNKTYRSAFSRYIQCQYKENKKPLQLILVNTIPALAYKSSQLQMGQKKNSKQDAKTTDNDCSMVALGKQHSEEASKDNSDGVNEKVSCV
Description: PDSP Primary Binding target: HTR2A - Compounds are tested at 10 uM concentration, plate are incubated at room temperature in the dark for 90 minutes. Reaction are stopped by vacuum filtration onto 0.3% polyethyleneimine soaked filter mats using Filtermate harvester. Scintilation cocktail is then melted onto microwave-dried filters on a hot plate and the radio activity is counted in Microbia counter.
The target of assay [6] is T3, Muscarinic acetylcholine receptor M5 (Homo sapiens) (UniProt P08912).
T3 sequence (whole entry): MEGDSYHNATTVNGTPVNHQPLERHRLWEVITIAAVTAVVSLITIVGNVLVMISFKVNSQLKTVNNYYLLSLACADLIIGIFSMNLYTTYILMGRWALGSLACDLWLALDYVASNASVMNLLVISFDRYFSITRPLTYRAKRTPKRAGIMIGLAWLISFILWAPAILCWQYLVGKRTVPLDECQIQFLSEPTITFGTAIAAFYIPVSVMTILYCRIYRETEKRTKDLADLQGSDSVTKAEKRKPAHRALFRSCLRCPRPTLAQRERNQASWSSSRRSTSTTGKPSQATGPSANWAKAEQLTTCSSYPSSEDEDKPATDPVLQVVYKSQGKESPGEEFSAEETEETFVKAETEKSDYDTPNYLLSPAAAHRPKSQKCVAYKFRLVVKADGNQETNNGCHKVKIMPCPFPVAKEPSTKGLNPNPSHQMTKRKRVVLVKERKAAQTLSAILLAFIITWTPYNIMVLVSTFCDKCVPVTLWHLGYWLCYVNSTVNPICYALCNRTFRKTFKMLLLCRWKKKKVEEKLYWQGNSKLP
Description: PDSP Primary Binding target: CHRM5 - Compounds are tested at 10 uM concentration, plate are incubated at room temperature in the dark for 90 minutes. Reaction are stopped by vacuum filtration onto 0.3% polyethyleneimine soaked filter mats using Filtermate harvester. Scintilation cocktail is then melted onto microwave-dried filters on a hot plate and the radio activity is counted in Microbia counter.

The target of assay [7] is 5-hydroxytryptamine receptor 1B (Homo sapiens) (UniProt P28222).
Chain of 5-hydroxytryptamine receptor 1B (Homo sapiens) (P28222 whole entry): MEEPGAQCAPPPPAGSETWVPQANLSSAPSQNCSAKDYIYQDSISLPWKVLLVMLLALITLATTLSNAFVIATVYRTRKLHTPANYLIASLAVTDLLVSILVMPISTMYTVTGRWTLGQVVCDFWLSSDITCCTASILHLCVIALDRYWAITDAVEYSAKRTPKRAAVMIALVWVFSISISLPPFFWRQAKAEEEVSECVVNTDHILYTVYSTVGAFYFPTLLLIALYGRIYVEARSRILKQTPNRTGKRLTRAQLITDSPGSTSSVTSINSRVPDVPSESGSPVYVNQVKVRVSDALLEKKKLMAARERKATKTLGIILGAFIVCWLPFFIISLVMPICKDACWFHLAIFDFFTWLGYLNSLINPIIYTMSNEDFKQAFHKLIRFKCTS
Description: PDSP Primary Binding target: HTR1B - Compounds are tested at 10 uM concentration, plate are incubated at room temperature in the dark for 90 minutes. Reaction are stopped by vacuum filtration onto 0.3% polyethyleneimine soaked filter mats using Filtermate harvester. Scintilation cocktail is then melted onto microwave-dried filters on a hot plate and the radio activity is counted in Microbia counter.
For assay [8], the target named is Histamine H1 receptor (Homo sapiens) (UniProt P35367).
Chain of Histamine H1 receptor (Homo sapiens) (P35367 whole entry): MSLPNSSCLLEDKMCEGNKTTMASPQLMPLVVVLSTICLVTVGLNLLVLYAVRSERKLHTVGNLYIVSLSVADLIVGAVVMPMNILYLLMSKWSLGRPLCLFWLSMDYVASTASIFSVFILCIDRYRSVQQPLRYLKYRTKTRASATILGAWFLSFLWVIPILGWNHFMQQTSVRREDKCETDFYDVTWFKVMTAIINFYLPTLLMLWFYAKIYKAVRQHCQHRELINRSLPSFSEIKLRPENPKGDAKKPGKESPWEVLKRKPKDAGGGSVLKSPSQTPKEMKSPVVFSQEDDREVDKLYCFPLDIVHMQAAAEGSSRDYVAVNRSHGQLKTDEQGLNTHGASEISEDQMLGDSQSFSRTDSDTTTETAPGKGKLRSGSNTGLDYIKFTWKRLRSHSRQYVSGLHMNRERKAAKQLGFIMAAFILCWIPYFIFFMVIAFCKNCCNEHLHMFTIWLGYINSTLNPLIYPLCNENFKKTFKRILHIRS
Description: PDSP Primary Binding target: HRH1 - Compounds are tested at 10 uM concentration, plate are incubated at room temperature in the dark for 90 minutes. Reaction are stopped by vacuum filtration onto 0.3% polyethyleneimine soaked filter mats using Filtermate harvester. Scintilation cocktail is then melted onto microwave-dried filters on a hot plate and the radio activity is counted in Microbia counter.
The target of assay [9] is Histamine H3 receptor (Homo sapiens) (UniProt Q9Y5N1).
Chain of Histamine H3 receptor (Homo sapiens) (Q9Y5N1 whole entry): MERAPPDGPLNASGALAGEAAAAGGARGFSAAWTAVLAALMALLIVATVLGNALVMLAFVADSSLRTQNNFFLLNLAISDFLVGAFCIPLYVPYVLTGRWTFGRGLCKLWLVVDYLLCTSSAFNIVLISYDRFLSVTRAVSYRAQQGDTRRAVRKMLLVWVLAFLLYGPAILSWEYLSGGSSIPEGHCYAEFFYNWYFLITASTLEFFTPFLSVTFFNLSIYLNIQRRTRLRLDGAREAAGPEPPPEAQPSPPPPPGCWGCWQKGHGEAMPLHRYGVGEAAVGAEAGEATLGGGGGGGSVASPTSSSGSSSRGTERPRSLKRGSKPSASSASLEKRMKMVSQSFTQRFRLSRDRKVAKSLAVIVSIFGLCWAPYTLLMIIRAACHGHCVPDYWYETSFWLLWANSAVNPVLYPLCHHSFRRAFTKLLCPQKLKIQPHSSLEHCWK
Description: PDSP Primary Binding target: HRH3 - Compounds are tested at 10 uM concentration, plate are incubated at room temperature in the dark for 90 minutes. Reaction are stopped by vacuum filtration onto 0.3% polyethyleneimine soaked filter mats using Filtermate harvester. Scintilation cocktail is then melted onto microwave-dried filters on a hot plate and the radio activity is counted in Microbia counter.
For assay [10], the target named is Mu-type opioid receptor (Homo sapiens) (UniProt P35372).
Chain of Mu-type opioid receptor (Homo sapiens) (P35372 whole entry): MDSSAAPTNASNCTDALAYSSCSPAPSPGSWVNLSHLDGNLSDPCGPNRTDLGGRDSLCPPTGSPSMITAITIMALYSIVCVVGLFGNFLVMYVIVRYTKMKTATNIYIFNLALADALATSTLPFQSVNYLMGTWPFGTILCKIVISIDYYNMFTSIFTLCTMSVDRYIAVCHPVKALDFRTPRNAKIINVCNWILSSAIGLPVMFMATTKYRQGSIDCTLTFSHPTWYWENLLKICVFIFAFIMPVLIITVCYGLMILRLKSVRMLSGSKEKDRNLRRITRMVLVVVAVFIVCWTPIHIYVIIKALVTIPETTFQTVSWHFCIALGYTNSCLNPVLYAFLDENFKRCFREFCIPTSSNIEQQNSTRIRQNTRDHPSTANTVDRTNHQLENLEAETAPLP
Description: PDSP Primary Binding target: OPRM1 - Compounds are tested at 10 uM concentration, plate are incubated at room temperature in the dark for 90 minutes. Reaction are stopped by vacuum filtration onto 0.3% polyethyleneimine soaked filter mats using Filtermate harvester. Scintilation cocktail is then melted onto microwave-dried filters on a hot plate and the radio activity is counted in Microbia counter.
The target of assay [11] is Sodium-dependent dopamine transporter (Homo sapiens) (UniProt Q01959).
Chain of Sodium-dependent dopamine transporter (Homo sapiens) (Q01959 whole entry): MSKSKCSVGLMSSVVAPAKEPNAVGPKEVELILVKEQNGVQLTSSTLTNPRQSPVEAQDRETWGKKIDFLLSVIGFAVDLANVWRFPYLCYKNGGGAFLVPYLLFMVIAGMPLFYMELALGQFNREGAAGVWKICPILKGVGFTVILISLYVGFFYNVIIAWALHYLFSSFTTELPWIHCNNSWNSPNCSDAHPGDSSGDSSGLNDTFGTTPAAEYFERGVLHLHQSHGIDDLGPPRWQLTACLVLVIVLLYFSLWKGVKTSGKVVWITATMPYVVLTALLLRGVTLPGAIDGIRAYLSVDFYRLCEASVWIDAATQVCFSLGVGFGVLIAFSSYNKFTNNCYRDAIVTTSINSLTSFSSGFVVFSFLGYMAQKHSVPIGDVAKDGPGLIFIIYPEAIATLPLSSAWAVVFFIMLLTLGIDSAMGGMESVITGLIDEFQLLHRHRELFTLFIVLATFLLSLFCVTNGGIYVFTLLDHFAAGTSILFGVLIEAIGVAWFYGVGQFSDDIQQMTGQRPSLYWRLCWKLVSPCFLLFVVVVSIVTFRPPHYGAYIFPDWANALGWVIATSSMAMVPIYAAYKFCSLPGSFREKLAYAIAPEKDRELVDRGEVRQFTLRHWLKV
Description: PDSP Primary Binding target: SLC6A3 - Compounds are tested at 10 uM concentration, plate are incubated at room temperature in the dark for 90 minutes. Reaction are stopped by vacuum filtration onto 0.3% polyethyleneimine soaked filter mats using Filtermate harvester. Scintilation cocktail is then melted onto microwave-dried filters on a hot plate and the radio activity is counted in Microbia counter.
The target of assay [12] is 5-hydroxytryptamine receptor 5A (Homo sapiens) (UniProt P47898).
Chain of 5-hydroxytryptamine receptor 5A (Homo sapiens) (P47898 whole entry): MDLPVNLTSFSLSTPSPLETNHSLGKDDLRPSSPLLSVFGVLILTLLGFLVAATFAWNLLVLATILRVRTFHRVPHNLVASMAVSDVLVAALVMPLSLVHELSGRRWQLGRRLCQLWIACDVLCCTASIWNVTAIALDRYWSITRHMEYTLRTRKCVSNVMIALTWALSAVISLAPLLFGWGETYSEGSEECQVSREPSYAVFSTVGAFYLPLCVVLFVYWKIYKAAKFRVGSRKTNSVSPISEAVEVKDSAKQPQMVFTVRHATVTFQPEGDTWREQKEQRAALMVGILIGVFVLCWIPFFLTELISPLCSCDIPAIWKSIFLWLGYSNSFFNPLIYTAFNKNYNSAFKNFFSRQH
Description: PDSP Primary Binding target: HTR5A - Compounds are tested at 10 uM concentration, plate are incubated at room temperature in the dark for 90 minutes. Reaction are stopped by vacuum filtration onto 0.3% polyethyleneimine soaked filter mats using Filtermate harvester. Scintilation cocktail is then melted onto microwave-dried filters on a hot plate and the radio activity is counted in Microbia counter.
Assay [13] deals with T4, 5-hydroxytryptamine receptor 1A (Homo sapiens) (UniProt P08908).
T4 sequence (whole entry): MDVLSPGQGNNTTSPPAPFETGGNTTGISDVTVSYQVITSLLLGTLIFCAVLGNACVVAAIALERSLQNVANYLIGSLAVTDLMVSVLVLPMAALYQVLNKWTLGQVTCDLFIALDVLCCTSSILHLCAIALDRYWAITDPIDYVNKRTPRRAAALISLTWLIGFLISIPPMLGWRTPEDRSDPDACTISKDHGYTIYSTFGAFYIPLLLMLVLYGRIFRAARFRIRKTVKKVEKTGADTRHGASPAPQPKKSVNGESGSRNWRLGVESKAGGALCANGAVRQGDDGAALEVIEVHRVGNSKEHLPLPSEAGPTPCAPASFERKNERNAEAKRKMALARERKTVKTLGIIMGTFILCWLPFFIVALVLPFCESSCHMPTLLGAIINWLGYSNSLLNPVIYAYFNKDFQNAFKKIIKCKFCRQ
Description: PDSP Primary Binding target: HTR1A - Compounds are tested at 10 uM concentration, plate are incubated at room temperature in the dark for 90 minutes. Reaction are stopped by vacuum filtration onto 0.3% polyethyleneimine soaked filter mats using Filtermate harvester. Scintilation cocktail is then melted onto microwave-dried filters on a hot plate and the radio activity is counted in Microbia counter.

Assay [14] concerns the target 5-hydroxytryptamine receptor 1D (Homo sapiens) (UniProt P28221).
Description: PDSP Primary Binding target: HTR1D - Compounds are tested at 10 uM concentration, plate are incubated at room temperature in the dark for 90 minutes. Reaction are stopped by vacuum filtration onto 0.3% polyethyleneimine soaked filter mats using Filtermate harvester. Scintilation cocktail is then melted onto microwave-dried filters on a hot plate and the radio activity is counted in Microbia counter.
Assay [15] deals with 5-hydroxytryptamine receptor 1E (Homo sapiens) (UniProt P28566).
Chain of 5-hydroxytryptamine receptor 1E (Homo sapiens) (P28566 whole entry): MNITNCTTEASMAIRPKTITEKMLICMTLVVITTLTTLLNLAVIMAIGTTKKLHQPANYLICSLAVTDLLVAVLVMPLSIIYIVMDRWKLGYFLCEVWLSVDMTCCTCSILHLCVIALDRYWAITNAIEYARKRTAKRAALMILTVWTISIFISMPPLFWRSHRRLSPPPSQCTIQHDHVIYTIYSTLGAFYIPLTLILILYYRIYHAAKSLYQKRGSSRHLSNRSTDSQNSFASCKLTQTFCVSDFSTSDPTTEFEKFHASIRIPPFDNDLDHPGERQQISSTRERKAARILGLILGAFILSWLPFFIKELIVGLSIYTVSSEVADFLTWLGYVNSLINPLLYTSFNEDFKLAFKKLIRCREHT
Description: PDSP Primary Binding target: HTR1E - Compounds are tested at 10 uM concentration, plate are incubated at room temperature in the dark for 90 minutes. Reaction are stopped by vacuum filtration onto 0.3% polyethyleneimine soaked filter mats using Filtermate harvester. Scintilation cocktail is then melted onto microwave-dried filters on a hot plate and the radio activity is counted in Microbia counter.

Molecules are shown by their SMILES.

As a reminder, the inhibition is the relative decrease from the control value, in per cent.

Chain of 5-hydroxytryptamine receptor 1D (Homo sapiens) (P28221 whole entry): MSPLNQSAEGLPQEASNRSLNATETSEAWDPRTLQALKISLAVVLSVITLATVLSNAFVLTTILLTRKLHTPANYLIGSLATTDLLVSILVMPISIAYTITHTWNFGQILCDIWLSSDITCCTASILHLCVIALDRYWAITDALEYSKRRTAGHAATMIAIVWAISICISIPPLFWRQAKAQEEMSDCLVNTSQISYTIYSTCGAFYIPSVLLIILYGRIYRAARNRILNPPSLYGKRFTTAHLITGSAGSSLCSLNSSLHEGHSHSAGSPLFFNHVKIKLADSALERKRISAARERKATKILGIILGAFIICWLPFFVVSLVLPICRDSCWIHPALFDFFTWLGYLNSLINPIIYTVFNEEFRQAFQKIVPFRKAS
Chain of Beta-1 adrenergic receptor (Homo sapiens) (P08588 whole entry, looked up): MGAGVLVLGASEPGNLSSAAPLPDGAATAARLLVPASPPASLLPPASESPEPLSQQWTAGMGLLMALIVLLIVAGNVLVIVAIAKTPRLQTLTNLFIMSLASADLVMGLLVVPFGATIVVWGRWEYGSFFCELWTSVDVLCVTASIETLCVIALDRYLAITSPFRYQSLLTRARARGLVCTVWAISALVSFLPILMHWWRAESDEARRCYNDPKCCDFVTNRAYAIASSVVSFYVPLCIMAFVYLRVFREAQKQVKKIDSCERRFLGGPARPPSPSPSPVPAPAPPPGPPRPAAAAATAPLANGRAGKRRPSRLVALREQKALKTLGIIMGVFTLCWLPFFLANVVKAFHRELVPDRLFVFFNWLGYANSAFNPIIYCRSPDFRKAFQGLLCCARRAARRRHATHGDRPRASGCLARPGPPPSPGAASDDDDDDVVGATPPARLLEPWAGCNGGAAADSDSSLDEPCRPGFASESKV

Consider `Oc1ccc2c3c1O[C@H]1c4[nH]c5c(c4C[C@@]4(O)[C@@H](C2)N(CC2CC2)CC[C@]314)C[C@@]1(O)[C@H]2Cc3ccc(O)c4c3[C@@]1(CCN2CC1CC1)[C@H]5O4`, for which the inhibition was 1.77% in assay [1]; -6.45% in assay [2]; 4.88% in assay [3]; 30.1% in assay [4]; 18.3% in assay [5]; -0.25% in [6]. The inhibition in assay [7] is 13.6%; in assay [8] it was 9.21%; in assay [9] it was 6.5%; in [10] it was 80.6%; in [11], -4.44%; in [12] it was 8.31%.

`Nc1nc(NCCc2ccc(O)cc2)nc2nc(-c3ccco3)nn12`: the inhibition is 22.3% in assay [1]; -5.81% in assay [2]; 8.13% in [3]; -6.79% in assay [4]; 17.1% in [5]; 27% in [7]. Further, the inhibition in [13] is -6.94%; in assay [10], 0.03%; in assay [11] it was 23.6%; in assay [14], 19.7%.

Turning to `O=S1(=O)c2cccc3cccc(c23)N1CCCN1CCN(c2ccc(F)cc2)CC1`, the inhibition is 8.94% in assay [1]; 81.7% in assay [2]; 92% in [3]; 97.8% in assay [4]; 103% in assay [5]; 15.9% in assay [6]. In addition, the inhibition in assay [7] is 31.4%; in assay [8], 96.9%; in assay [13], 91.6%; in assay [9], 45.5%; in assay [10] it was 43%; in assay [11], 75.8%. For the same compound, the inhibition in assay [15] is -4.51%; in assay [12] it was 58.9%.

Consider `CN1CC(=O)N=C1NC(=O)Nc1cccc(Cl)c1`, for which the inhibition was -8.91% in [2]; -0.49% in assay [3]; 7.79% in assay [4]; 1.19% in [5]; 6.05% in assay [6]; 31.2% in [7]. The inhibition was -1.11% in assay [8]; -4.69% in assay [9]; 5.37% in [10]; 0.92% in [11]; 4.68% in assay [14]; 7.82% in [15]. In assay [12], the inhibition is 18.4%.

Turning to `Cc1nc2sccn2c(=O)c1CCN1CCC(=C(c2ccc(F)cc2)c2ccc(F)cc2)CC1`, the inhibition in assay [1] was 19%; in assay [2], 80.8%; in [3], 97.8%; in assay [4], 96.8%; in assay [5], 91%; in assay [6] it was -0.02%. Further, the inhibition in assay [7] is 96%; in assay [8], 98.3%; in [13] it was 30.5%; in [9], 30.7%; in [10] it was 63.5%; in [11], 68.9%. Also, the inhibition in assay [15] is 80.8%; in assay [12], 94%.

Take `CC(C)NCC(O)COc1ccc(CCOCC2CC2)cc1` (configuration not stated): the inhibition in [2] was -2.29%; in assay [3] it was 5.75%; in assay [4], -7.39%; in assay [5], 8.23%; in [6], 0.46%; in assay [7], 10.4%. Further, the inhibition in [8] is 1.05%; in assay [13], -1.07%; in assay [9], 28.3%; in assay [10] it was 3.09%; in assay [11] it was 27.9%; in assay [14], 5.07%. Further, the inhibition in assay [15] was 5.21%; in assay [12], -3.84%.

These data come from ChEMBL document CHEMBL5442219.
